Assay results: patent US10251865B2, “Method of activating regulatory T cells with alpha-2B adrenergic receptor agonists” (Allergan, Inc., priority 2010, dated 2019)

How the values were obtained:
[1] = tested on: PLP-induced model of relapsing remitting EAE; experiment: Proteolipid-induced relapsing-remitting EAE in mice: clinical score and pain; assay type: in vivo
Description: The mouse model of experimental autoimmune encephalomyelitis (EAE) has been used extensively to understand the mechanisms underlying the immunopathogenesis of MS. […] Components of the immune system including T cells, macrophage, and antibodies are important contributors to myelin destruction in EAE mice. Further, inflammation also gives rise to multifocal regions demyelination culminating in clinical signs of neurologic dysfunction that include loss of tail tone, abnormal gait and partial-to-complete hind-limb paralysis. PLP-induced EAE model offers the ability to simultaneously investigate the pathogenic mechanisms of CNS inflammation and demyelination and MS-associated pain, a multi-targeted concept that we have optimized here at Allergan. Using sterile technique proteolipid protein myelin peptide (PLP) (139-159: […]) is mixed 1:1 with incomplete Freund's adjuvant (IFA) (Final concentration of 2 mg/ml PLP). 8-10 week old Female SJL mice (Taconic) are injected subcutaneously with 100 μl PLP/IFA (200 μg PLP/injection) on both the right and left hind-flank (day 0) using a 26G needle. Mice immunized using this protocol experience a relapsing-remitting clinical course with episodes of motor impairment interspersed with periods of remission/clinical improvement. Furthermore, these mice display a robust pain phenotype that is most pronounced during periods of clinical remission.
Using this protocol, the onset of PLP-induced EAE in SJL mice occurs at an incidence of (˜90-100%) and is generally apparent by ˜12 days post-immunization, reaching peak disease by 14-21 days. PLP-EAE mice show physical symptoms of neurologic impairment, progressing from partial loss of tail tonicity to partial-to-complete hind-limb paralysis. Up to 75% of the mice will experience a relapsing-remitting clinical course with periods of remission flanked by episodes of motor impairment (hind-limb weakness and paralysis). Histologically, mice display extensive inflammation within white matter tracts (areas containing myelinated axons) of the brain and spinal cord, progressive infiltration and accumulation of inflammatory cells, demyelination and axonal loss. Mice with severe EAE show extensive cellular infiltrates, widespread foci of demyelination. PLP-immunized mice typically display the most severe clinical disease during the first episode of neurologic impairment (days 14-21). […]
Mice were routinely visually scored for behavioral abnormalities on a scale from 0-5; 0-no abnormality, 1-partial loss of tail tonicity (partial limp tail), 2-loss of tail tonicity and hind-limb weakness 3-unsteady gait and partial hind-limb paralysis, 4-complete hind-limb paralysis and 5-moribund or dead. […] Allodynia was measured by the Von Frey hairs method as described earlier. […]

[2] = tested on: SNL Rat Model of Allodynic Neuropathic Pain; experiment: Allodynia reversal (Von Frey) in the SNL Rat Model of Allodynic Neuropathic Pain; assay type: in vivo; settings: for % Allodynia Reversal 24 hr post / % Allodynia Reversal 23 day post / % Allodynia Reversal 7 day post: SNL rats; for blockade of the (long-term) analgesic effect by the immunosuppressant FK506: spinal nerve ligation model, result in words
Protocol: The SNL (or Chung) Model in the rat is an accepted standard animal model of neuropathic pain and is thought to mimic the human causalgia condition with respect to symptoms (guarding behavior, mechanical allodynia) and alleviation by pharmacological agents. […] The SNL Model is performed by tightly ligating the L-5 and L-6 spinal nerves, which produces tactile allodynia or sensitivity to light touch as described (Kim and Chung, 1992). Male sprague-dawley rats (100-120 grams; Charles River, Wilmington, Mass.) were anesthetized through inhalation of an isoflurane/oxygen mix. The surgical site was shaved and prepared with betadine. An incision was made from the thoracic vertebra XIII toward down the sacrum. The muscle was separated from the spinal vertebra (left side) at the L4-S2 levels. The L6 vertebra was located and then the transverse process was carefully removed with a small rongeur to visually identify the L4-L6 spinal nerves. The L5 and L6 spinal nerves was isolated and tightly ligated with 6-0 silk thread. A complete homeostasis was confirmed and then the wound was sutured. The duration of the surgery was approximately 20 minutes. A small amount of antibiotic ointment was applied to the incised area and the animals were transferred to a plastic recovery cage under a regulated heat-temperature lamp. Animals were not given any topical or local anesthetics post-operatively because they will inhibit the development of the pain syndrome, which is the phenomenon to be studied.
The allodynia is quantitated in the animals having received the Chung surgery by stimulation with a series of 8 Von Frey hairs on the mid planter area of the surgical hind paw in the up-down manner as described in the literature (Dixon, 1980). Von Frey hairs are applied in an up-down manner depending on the response until the 50% threshold is established. The Von Frey hairs are applied to the plantar surface of the surgical paw with just enough force to bend them. A positive response is recorded if the paw is sharply withdrawn. Eight Von Frey hairs were used 3.61, 3.84, 4.08, 4.31, 4.56, 4.74, 4.93 and 5.18 yielding a gram force of 0.25-15 grams.
[formula] • Mean±SEM: • Mean=average of allodynia reversals • SEM=STDEV/SQ ROOT of n
Testing with compounds is done 2-3 weeks after surgery to establish stable allodynia. In all experimental animals, baseline measurements were taken prior to drug administration and then at 24 hours and 5-23 days post dosing with Alzet osmotic minipump. The investigator was blinded to the identity of the drug groups. The % allodynia reversal is calculated as: [(Postdrug threshold−Predrug threshold)/(15-Predrug threshold)]×100.
Compound B was formulated in 50% DMSO (dimethyl sulfoxide; Sigma, St. Louis, Mo.). This solution was dosed orally TID at a dose of 0.3 or 1 mg/kg. For dosing in the osmotic minipumps (Model 1007D, Alzet Corp., Palo Alto, Calif.) the compound was loaded onto the pumps set to deliver a final dose of either 1 or 3 mg/kg/day. The vehicle for these studies is 50% DMSO.
Compound C was formulated first in 100% DMSO (Sigma, St. Louis, Mo.), then diluted down in 30% DMSO for a 10 mg/ml solution; 15% DMSO for a 3 mg/ml solution and further dilutions were made in water. The compound was dosed orally TID at a dose of either 0.3 or 1 mg/kg for a total daily dose of 1 or 3 mg/kg/day, respectively.

[3] = 1 mg/kg/day TID oral for 5 days + 3 mg/kg FK506 BID SC for 5 days, mean % MPE ± SEM
[4] = 1 mg/kg/day TID oral for 5 days, mean % MPE ± SEM
[5] = 1 mg/kg/day osmotic minipump for 7 days + 3 mg/kg FK506 BID SC for 5 days
[6] = 1 mg/kg/day osmotic minipump, treatment for 7 days

Structure (SMILES): Clc1cccc(CNC2=NCCN2)c1Cl [Compound C]
- clinical score compared to vehicle-treated mice from days 13-24 ([1]; TID oral dosing (3 mg/kg/day) from day 7-13, FIG. 6): significantly reduced
- % Allodynia Reversal 24 hr post [2, 3]: 49 ± 13.15 %
- % Allodynia Reversal 23 day post [2, 3]: 21.82 ± 4.26%
- % Allodynia Reversal 24 hr post [2, 4]: 66.06 ± 10.71 %
- % Allodynia Reversal 23 day post [2, 4]: 81.48 ± 6.00 %
- blockade of the (long-term) analgesic effect by the immunosuppressant FK506 [2]: able to block

Structure (SMILES): CCC1=CC(Cc2c[nH]cn2)CCC1 (centres unmarked) [Compound B]
- pain ([1]; mice immunized with proteolipid protein, 3 mg/kg/day by osmotic minipump, FIG. 3): reduced
- symptoms of MS (clinical course of disease) ([1]; treatment during the development of clinical disease, FIG. 4): significant effect on attenuating symptoms
- clinical score during relapses on days 14 (p<0.01) and 24 ([1]; treatment from days 7-10): reduced
- % Allodynia Reversal 24 hr post [2, 5]: 57.06 ± 14.52 %
- % Allodynia Reversal 7 day post [2, 5]: 16.43 ± 19.42%
- % Allodynia Reversal 24 hr post [2, 6]: 78.50 ± 7.85 %
- % Allodynia Reversal 7 day post [2, 6]: 73.35 ± 11.95 %
- blockade of the (long-term) analgesic effect by the immunosuppressant FK506 [2]: blockable
